Experimental data taken from article PMC12041855 (2025).

What was measured:
[1] = test system: Zar1 5′-UTR (RNA, G4) UGGGCGGGCGAGGCGCGGGACGCACCC; test: CD titration; conditions: 100 mM KCl; 10 mM Tris-HCl pH 7.4, 25°C; 5 μM RNA, 5-20 μM BYBX
[2] = test system: Zar1 5′-UTR^ΔrG4 (RNA, single strand) UGAACAAACGAAACACGAAACGCACCC; test: CD melting at 262 nm; conditions: 20 mM KCl; 10 mM Tris-HCl pH 7.4; 10 μM BYBX, 5 μM RNA; no melting transition seen
[3] = test system: Zar1 5′-UTR (RNA, G4) UGGGCGGGCGAGGCGCGGGACGCACCC; test: fluorescence titration (ex 447 nm, em 538 nm); conditions: 100 mM KCl; 10 mM Tris-HCl pH 7.4, 25°C; 1 μM BYBX, RNA 0-1.9 μM; 50-fold enhancement
[4] = test system: Zar1 5′-UTR^ΔrG4 (RNA, single strand) UGAACAAACGAAACACGAAACGCACCC; test: fluorescence titration (ex 447 nm, em 538 nm); conditions: 100 mM KCl; 10 mM Tris-HCl pH 7.4, 25°C; 1 μM BYBX; almost no emission
[5] = test system: Zar1 5′-UTR (RNA, G4) UGGGCGGGCGAGGCGCGGGACGCACCC; test: CD melting at 262 nm; conditions: 20 mM KCl; 10 mM Tris-HCl pH 7.4; 10 μM BYBX, 5 μM RNA
[6] = test system: Zar1 5′-UTR (RNA, G4) UGGGCGGGCGAGGCGCGGGACGCACCC; test: ITC; conditions: 60 mM KCl, 25 mM KH2PO4; pH 7.4, 0.4% DMSO, 25°C; one set of sites; 10 μM RNA, 100 μM BYBX in syringe
[7] = test system: Zar1 5′-UTR^ΔrG4 (RNA, single strand) UGAACAAACGAAACACGAAACGCACCC; test: ITC; conditions: 60 mM KCl, 25 mM KH2PO4; pH 7.4, 0.4% DMSO, 25°C; n.d., signal too weak; 100 μM BYBX in syringe

binding [1]: yes
ΔTm [2]: 0.06 °C
binding [3]: yes
binding [4]: no
ΔTm [5]: 11 °C
KD [6]: 393 nM
binding [7]: no
Compound: CN1/C(=C/C2=[N+](CC(N)=O)c3ccc4ccccc4c3C2(C)C)Sc2ccccc21
